Results reported in publication PMC7756445, “A Novel Prodrug of a nNOS Inhibitor with Improved Pharmacokinetic Potential” (Chemmedchem, 2020).
pIC50: −log10 of the molar value. Like-named read-outs stand apart in the source and are kept apart here.

Tests used:
[1] = Log D and log P by shake-flask method; format: physicochemical; conditions: for logP: shake-flask, as free amine, mean ± SD of three
Text: The herein presented amidoxime 2 was designed as prodrug of the amidine 1 to improve membrane permeability and oral bioavailability. In this context, the deepening of the physicochemical properties is essential to obtain a favorable pharmacological profile. Therefore, we investigated the lipophilicity, the passive permeation through the human GI tract through the PAMPA assays, and the chemical and enzymatic stabilities in simulated GI fluids and plasma. […] In this study, the lipophilicity of our compounds was determined by means of the “shake‐flask method” and compared to the corresponding values calculated by the software. ^[43] However, for ionizable compounds, the distribution coefficient (log D) should be used instead of log P in the pH range where ionic species exist. ^[44] In this study, log P and log D were calculated (Table 1).
The column was a Waters Symmetry RP‐C18 column (4.6×150 mm, 5 μm). The mobile phase was a mixture of TFA 0.01 M/ACN/(MeOH/THF 90 : 10) 20/52/28 and the flow rate was 0.7 mL/min. The UV detector was set at a length of 254 nm.
Both n‐octanol and aqueous buffer (pH 1.4, 6.5 and 9.4) solutions were saturated of each other. 2 mg of tested compound was dissolved in 500 μL of organic phase and mixed with an equal volume of aqueous buffer by repeated inversions of up to 200 times for 5 min and then allowed to stand for 30 min for the phases to fully separate. Thereafter, the respective phases were analyzed by HPLC.

[2] = PAMPA-GI assay; parameters: Papp at 2 h: dose or concentration left out as unconfirmed; conditions: for Papp at 2 h: PAMPA; for PAMPA-GI permeability (in words): only at pH 7.4
Procedure: (§1) The relative passive transcellular diffusion of compounds, expressed as permeability coefficient (Pe), was determined with a permeability equation. ^[45] The permeabilities of 1, 2, and 1400 W were determined at pH 5.0, 6.5, and 7.4 to mimic the physiological conditions of the GI tract (Table 1). […] As the new prodrug was designed for the potential treatment of neurodegenerative diseases, an important parameter is its capability to cross the BBB.
Each donor filtration plate well, carefully impregnated with 5 µL of this solution, was added of 150 μL of […] test compound buffer solutions (phosphate buffer for pH 7.4 and pH 6.5 and hydrochloric acid buffer for pH 1.4). Subsequently, the drug‐filled donor plate was placed onto the acceptor plate prefilled with the same buffer (300 μL) as the acceptor solution. Once replaced the plate lid, the resulting assembled donor‐acceptor plates were incubated at room temperature for 2 h. The concentration in the acceptor and donor solutions were determined by HPLC. The Pe was determined as previously reported. ^[47]

[3] = PAMPA-BBB assay; parameters: Papp at 18 h: dose or concentration left out as unconfirmed; conditions: for Papp at 18 h: pig, PAMPA
Procedure: as §1
PAMPA‐BBB assays were performed following the same procedure described above for PAMPA‐GI. Briefly, an artificial membrane consisting in a porcine polar brain lipid extract mixture (purchased from Avantis Polar Lipids, Alabaster, AL, USA) and an incubation time of 18 h were adopted as experimental conditions.

[4] = system: mARC; parameters: method as in PMID 31790578; conditions: known in vivo studies; cited from earlier work
[5] = system: nNOS; parameters: method as in PMID 20933416; conditions: previously reported; cited from earlier work
[6] = system: eNOS; parameters: method as in PMID 20933416; conditions: previously reported; cited from earlier work
[7] = system: iNOS; parameters: method as in PMID 20933416; conditions: previously reported; cited from earlier work
[8] = porcine polar brain lipid, 18 h

logD ([1]; n-octanol/aqueous buffer pH 1.4, mean ± SD of three, read-out: log D 1.4) | logD ([1]; n-octanol/aqueous buffer pH 6.5, mean ± SD of three, read-out: log D 6.5) | logD ([1]; n-octanol/aqueous buffer pH 9.4, mean ± SD of three, read-out: log D 9.4) | logP ([1]; n-octanol/aqueous buffer) | Papp at 2 h ([2]; pH 1.4) [×10⁻⁶ cm/s] | Papp at 2 h ([2]; pH 6.5) [×10⁻⁶ cm/s] | Papp at 2 h ([2]; pH 7.4) [×10⁻⁶ cm/s] | PAMPA-GI permeability (in words) [2] | Papp at 18 h [3] [×10⁻⁶ cm/s] | logD ([1]; n-octanol/aqueous buffer, pH 1.4, n-octanol/aqueous buffer pH 1.4, mean ± SD of three, read-out: log D 1.4) | logD ([1]; n-octanol/aqueous buffer, pH 6.5, n-octanol/aqueous buffer pH 6.5, mean ± SD of three, read-out: log D 6.5) | logD ([1]; n-octanol/aqueous buffer, pH 9.4, n-octanol/aqueous buffer pH 9.4, mean ± SD of three, read-out: log D 9.4) | Papp at 18 h ([3]; PAMPA-BBB permeability Pe, porcine polar brain lipid, 18 h) [×10⁻⁶ cm/s] | melting point [°C] | Compound | PAMPA-BBB permeation class [3, 8] | conversion to the corresponding benzamidine in vivo [4] | pIC50 [5] | eNOS/nNOS selectivity [6] [folds] | iNOS/nNOS selectivity [7] [folds]
-1.82 | -1.78 | -1.66 | -1.66 | 0.98 | 1.02 | 1.86 | good permeability | 1.49 | – | – | – | – | – | CC(=N)NCc1cccc(CN)c1 [1400 W, reference compound] | CNS− (CNS− (indicative of low BBB permeation): Pe <2.0) | – | – | – | –
– | – | – | – | – | – | – | – | – | – | – | – | – | – | NC(=NO)c1ccccc1 [BAO, benzamidoxime] | – | completely converted | – | – | –
– | – | – | 2.54 | 0.57 | 1.02 | 1.88 | good permeability | – | -0.85 | -0.31 | 0.75 | 2.7 | 278 to 280 | Br.CC(=N)NC(c1ccccc1)c1ccccc1 [Compound 1, 1‐(benzhydrylamino)ethaniminium bromide] | CNS± (CNS± (discrete BBB permeation): Pe from 4.0 to 2.0) | – | 6.52 | 1166 | 100
